≈ marks a conversion by molar mass, not a printed value.
Assays:
[1] = molecular target: human C5 complement protein (Homo sapiens, UniProt P01031); test: Surface plasmon resonance (SPR), immobilized human C5, 37° C. (Example 12, Table 21); assay type: binding; settings: where a range of compound concentrations were analyzed, the lowest value obtained
From the text: (§1) Compound CU0136 is a racemic mixture of Compound CU0186 and CU0187. Numbers in parenthesis following compound numbers indicate alternate enantiomers (as distinguished by retention time during chromatographical separation).

[2] = molecular target: T1, Human C5 (Homo sapiens, UniProt P01031); test: Red blood cell (RBC) hemolysis assay, luminescent (Example 13, Table 22); assay type: cell-based; settings: sheep EA cells, […] C5-depleted human serum, 0.5 nM human C5, 1 hour 37° C., luminescence; note: 1.5% C5-depleted human serum
T1 construct: purchased Complement Technology
From the text: as §1

[3] = Kinetic solubility in PBS pH 7.4, HPLC-UV (Example 21, Table 27); assay type: physicochemical; settings: phosphate buffered saline, aqueous buffer, kinetic from dmso stock, 0.5 M PBS, shaken minimum 24 h at approximately 25° C., HPLC-UV 270 nm
Method in brief: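 10 mM DMSO stock diluted into 0.05 M PBS pH 7.4 (5% DMSO final), in triplicate, shaken ≥24 h at ~25 °C, then filtered by centrifugation. Supernatant concentration by HPLC-UV at 270 nm against external DMSO standards (15.6–500.0 μM).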

[4] = molecular target: T1, Human C5; test: Red blood cell (RBC) hemolysis assay, luminescent (Example 24, Table 29); assay type: cell-based; settings: sheep EA cells, […] C5-depleted human serum, 0.5 nM human C5, 1 hour at 37° C., luminescence (Table 29)
From the text: Numbers in parenthesis following the compound number indicate alternate enantiomers (as distinguished by retention time during chromatographical separation).

Chain of human C5 complement protein (P01031 19-1676): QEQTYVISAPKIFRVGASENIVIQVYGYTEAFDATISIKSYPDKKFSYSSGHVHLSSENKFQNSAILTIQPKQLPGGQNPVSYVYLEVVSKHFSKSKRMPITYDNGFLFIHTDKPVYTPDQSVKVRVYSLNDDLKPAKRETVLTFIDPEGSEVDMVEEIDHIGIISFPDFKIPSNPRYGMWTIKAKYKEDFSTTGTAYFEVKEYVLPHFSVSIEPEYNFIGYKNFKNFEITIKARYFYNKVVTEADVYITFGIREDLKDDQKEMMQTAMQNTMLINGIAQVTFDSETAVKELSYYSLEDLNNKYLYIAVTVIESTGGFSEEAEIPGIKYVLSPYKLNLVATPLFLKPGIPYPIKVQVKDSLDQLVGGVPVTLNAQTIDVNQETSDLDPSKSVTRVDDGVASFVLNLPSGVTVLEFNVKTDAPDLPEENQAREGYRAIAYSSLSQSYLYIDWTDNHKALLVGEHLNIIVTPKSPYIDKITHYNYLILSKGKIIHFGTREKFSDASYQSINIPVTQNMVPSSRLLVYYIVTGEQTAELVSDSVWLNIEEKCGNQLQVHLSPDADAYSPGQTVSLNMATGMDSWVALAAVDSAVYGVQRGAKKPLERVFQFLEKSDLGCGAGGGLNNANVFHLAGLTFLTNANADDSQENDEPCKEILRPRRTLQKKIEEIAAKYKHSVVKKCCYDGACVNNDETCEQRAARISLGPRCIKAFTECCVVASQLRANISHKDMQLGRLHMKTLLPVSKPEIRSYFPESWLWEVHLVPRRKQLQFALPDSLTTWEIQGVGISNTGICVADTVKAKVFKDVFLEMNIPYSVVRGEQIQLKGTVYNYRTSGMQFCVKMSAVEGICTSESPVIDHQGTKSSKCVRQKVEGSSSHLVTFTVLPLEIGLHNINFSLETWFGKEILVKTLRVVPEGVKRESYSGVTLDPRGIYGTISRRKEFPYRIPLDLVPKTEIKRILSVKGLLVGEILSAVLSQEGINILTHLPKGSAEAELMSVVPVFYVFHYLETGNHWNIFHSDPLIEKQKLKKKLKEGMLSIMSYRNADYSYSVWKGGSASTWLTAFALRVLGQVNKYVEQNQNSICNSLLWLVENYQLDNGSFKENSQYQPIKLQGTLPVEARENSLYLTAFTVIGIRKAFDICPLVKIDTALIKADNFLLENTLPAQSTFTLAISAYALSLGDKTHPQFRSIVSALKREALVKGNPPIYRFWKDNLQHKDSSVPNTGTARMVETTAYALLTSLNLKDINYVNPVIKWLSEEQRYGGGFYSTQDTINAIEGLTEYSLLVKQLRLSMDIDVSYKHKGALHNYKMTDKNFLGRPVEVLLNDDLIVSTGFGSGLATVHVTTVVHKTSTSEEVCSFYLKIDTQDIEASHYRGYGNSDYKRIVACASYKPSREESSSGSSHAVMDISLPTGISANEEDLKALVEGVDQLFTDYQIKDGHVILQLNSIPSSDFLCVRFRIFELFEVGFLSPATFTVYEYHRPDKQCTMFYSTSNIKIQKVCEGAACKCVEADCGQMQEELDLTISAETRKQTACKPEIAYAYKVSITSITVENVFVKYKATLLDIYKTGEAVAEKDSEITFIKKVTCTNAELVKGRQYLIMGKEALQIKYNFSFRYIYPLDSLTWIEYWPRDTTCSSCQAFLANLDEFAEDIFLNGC
T1 sequence (P01031 19-1676): as above

Kd [1] [nM]	solubility kinetic [3] [µM]	SMILES	IC50 [2] [nM]	IC50 [4] [nM]
2.1	–	CCCCCOc1cc(N2CCCN(Cc3ccc(CC(=O)N4CCCOCC4)cc3OC)C2=O)ccc1OC [CU0100]	21	–
1.9	427 (≈ 249 µg/mL)	CCCCCOc1cc(N2CCCN(Cc3ccc(CC(=O)N4CCOC(COC)C4)cc3OC)C2=O)ccc1OC (centres unmarked) [CU0105]	130	–
2	453 (≈ 259 µg/mL)	CCCCCOc1cc(N2CCCN(Cc3ccc(CC(=O)N[C@H]4CN(C)C[C@H]4F)cc3OC)C2=O)ccc1OC [CU0106]	43.9	–
2	266 (≈ 154 µg/mL)	CCCCCOc1cc(N2CCCN(Cc3ccc(CC(=O)N4CC(=O)N(C)C(C)C4)cc3OC)C2=O)ccc1OC (centres unmarked) [CU0107]	38	–
1.2	> 500	CCCCCOc1cc(N2CCCN(Cc3ccc(CC(=O)N[C@@H]4CNC[C@H]4F)cc3OC)C2=O)ccc1OC [CU0108]	19.5	–
1.1	> 500	CCCCCOc1cc(N2CCCN(Cc3ccc(CC(=O)NC4CCN(C(C)C)CC4)cc3OC)C2=O)ccc1OC [CU0109]	18.6	–
2	295 (≈ 171 µg/mL)	CCCCCOc1cc(N2CCCN(Cc3ccc(CC(=O)NC4CCN(C(C)=O)C4)cc3OC)C2=O)ccc1OC (centres unmarked) [CU0110]	16.4	–
3.4	–	CCCC(F)(F)COc1cc(N2CCCN(Cc3ccc(CC(=O)N(C)C)cc3OC)C2=O)ccc1OC [CU0111]	25.2	–
2.6	–	CCCC(F)(F)COc1cc(N2CCCN(Cc3ccc(CC(=O)N4CCCOCC4)cc3OC)C2=O)ccc1OC [CU0112]	25.9	–
7.8	–	CCCCCOc1cc(N2CCCN(Cc3ccc(CC(=O)N(C)C)cc3Cl)C2=O)ccc1OC [CU0115]	27.9	–
10.3	–	CCCCCOc1cc(N2CCCN(Cc3ccc(CC(=O)N4CCOCC4)cc3Cl)C2=O)ccc1OC [CU0116]	23.2	–
8.3	–	CCCCCOc1cc(N2CCCN(Cc3ccc(CC(=O)N4CCCOCC4)cc3Cl)C2=O)ccc1OC [CU0117]	32.5	–
12.8	–	CCCCCOc1cc(N2CCCN(Cc3ccc(CC(=O)N4CCCC4)cc3Cl)C2=O)ccc1OC [CU0118]	35.3	–
3.6	–	CCCCCOc1cc(N2CCCN(Cc3ccc(Cc4nnco4)cc3OC)C2=O)ccc1OC [CU0120]	11.8	–
27.5	–	CCCCCOc1cc(N2CCCN(Cc3ccc(CN(CC)CC)cc3OC)C2=O)ccc1OC [CU0121]	38.9	–
9.6	–	CCCCCOc1cc(N2CCCN(Cc3ccc(CCN(CC)CC)cc3OC)C2=O)ccc1OC [CU0122]	17.1	–
4.2	404 (≈ 206 µg/mL)	CCCCCOc1cc(N2CCCN(Cc3ccc(CCN4CCCC4)cc3OC)C2=O)ccc1OC [CU0123]	17.1	–
6.4	–	CCCCCOc1cc(N2CCCN(Cc3ccc(CCN4CCOCC4)cc3OC)C2=O)ccc1OC [CU0124]	26	–
9.5	–	CCCCCOc1cc(N2CCCN(Cc3cccc(-c4cnn(C5CCN(C)CC5)c4)c3F)C2=O)ccc1OC [CU0127]	30.2	–
23.8	–	CCCCCOc1cc(N2CCCN(Cc3cc(-c4cnn(C5COC5)c4)ccc3OC)C2=O)ccc1OC [CU0129]	61.5	–
0.9	64 (≈ 33.3 µg/mL)	CCCCCOc1cc(N2CCCN(Cc3cccc4c3c(C)cn4CC(=O)N(C)C)C2=O)ccc1OC [CU0231]	20.3	–
1.3	< 10	CCCCCOc1cc(N2CCCN(Cc3cccc4c3c(F)cn4CC(=O)N(C)C)C2=O)ccc1OC [CU0232]	21.6	–

Kd [1] [nM]	solubility kinetic [3] [µM]	SMILES	IC50 [2] [nM]	IC50 [4] [nM]
3.8	–	CCCCCOc1cc(N2CCCN(Cc3cccc4c3ccn4CC(=O)N3CCCC3)C2=O)ccc1OC [CU0235]	29.4	–
–	–	CCCCCOc1cc(N2CC[C@H](C)N(Cc3cccc4c3ccn4CC(=O)N3CCNC(=O)C3)C2=O)ccc1OC [SC0003]	–	9.9
–	–	CCCCCOc1cc(N2CC[C@H](C)N(Cc3cccc4c3ccn4CC(=O)N3CCCOCC3)C2=O)ccc1OC [SC0004]	–	10.5
–	–	CCCCCOc1cc(N2CC[C@H](C)N(Cc3cccc4c3ccn4CC(=O)N3CCOC(COC)C3)C2=O)ccc1OC (some centres unmarked) [SC0005]	–	11.2
–	–	CCCCCOc1cc(N2CC[C@H](C)N(Cc3cccc4c3ccn4CC(=O)NC3CC(O)C3)C2=O)ccc1OC (some centres unmarked) [SC0006]	–	11.2
–	–	CCCCCOc1cc(N2CC[C@H](C)N(Cc3cccc4[nH]ccc34)C2=O)ccc1OC [SC0010]	–	24.7
–	–	CCCCCOc1cc(N2CC[C@H](C)N(Cc3cccc4c3ccn4CC(=O)N3CCOCC3)C2=O)ccc1OC [SC0012]	–	28.5
–	–	CCCCCOc1cc(N2CC[C@H](C)N(Cc3cccc4c3ccn4Cc3cccnc3)C2=O)ccc1OC [SC0013]	–	46.7
–	–	CCCCCOc1cc(N2CC[C@@H](C)N(Cc3cccc4c3ccn4CC(=O)N(C)C)C2=O)ccc1OC [SC0014]	–	146
–	–	CCCCCOc1cc(N2CC[C@@H](C)N(Cc3ccnc4[nH]ccc34)C2=O)ccc1OC [SC0015]	–	222
–	–	CCCCCOc1cc(N2CC(CO)CN(Cc3cc(F)ccc3OC)C2=O)ccc1OC (centres unmarked) [SC0016(1)]	–	8.4
–	–	CCCCCOc1cc(N2CC(CO)CN(Cc3cc(F)ccc3OC)C2=O)ccc1OC (centres unmarked) [SC0016(2)]	–	12.8
–	–	CCCCCOc1cc(N2CC(C)CN(Cc3cc(F)ccc3OC)C2=O)ccc1OC (centres unmarked) [SC0018]	–	44.7
–	–	CCCCCOc1cc(N2CC(C)CN(Cc3ccc(CC(=O)O)cc3OC)C2=O)ccc1OC (centres unmarked) [SC0019]	–	55.9
–	–	CCCCCOc1cc(N2C[C@H](C)CN(Cc3cc(F)ccc3OC)C2=O)ccc1OC [SC0020]	–	66.8
–	–	CCCCCOc1cc(N2C[C@@H](C)CN(Cc3cc(F)ccc3OC)C2=O)ccc1OC [SC0021]	–	71.5
–	–	CCCCCOc1cc(N2CC(O)(CO)CN(Cc3cc(F)ccc3OC)C2=O)ccc1OC (centres unmarked) [SC0022]	–	140
–	–	CCCCCOc1cc(N2CC(COCc3ccncn3)CN(Cc3cc(F)ccc3OC)C2=O)ccc1OC (centres unmarked) [SC0023]	–	111
–	–	CCCCCOc1cc(N2CC(COCC(=O)O)CN(Cc3cc(F)ccc3OC)C2=O)ccc1OC (centres unmarked) [SC0024]	–	59.3
–	–	CCCCCOc1cc(N2CC(COCC(=O)N(C)C)CN(Cc3cc(F)ccc3OC)C2=O)ccc1OC (centres unmarked) [SC0025]	–	59.4
–	–	CCCCCOc1cc(N2CC(COCC(=O)N(C)CCO)CN(Cc3cc(F)ccc3OC)C2=O)ccc1OC (centres unmarked) [SC0026]	–	59.7
–	–	CCCCCOc1cc(N2CC(CO)CN(Cc3ccc(Br)cc3OC)C2=O)ccc1OC (centres unmarked) [SC0027]	–	65.1

Kd [1] [nM]	solubility kinetic [3] [µM]	SMILES	IC50 [2] [nM]	IC50 [4] [nM]
–	–	CCCCCOc1cc(N2CC(COCC(N)=O)CN(Cc3cc(F)ccc3OC)C2=O)ccc1OC (centres unmarked) [SC0028]	–	53.7
–	–	CCCCCOc1cc(N2CC(COCC(=O)N3CCOCC3)CN(Cc3cc(F)ccc3OC)C2=O)ccc1OC (centres unmarked) [SC0029]	–	84.5
–	–	CCCCCOc1cc(N2CC(COCC(=O)NC)CN(Cc3cc(F)ccc3OC)C2=O)ccc1OC (centres unmarked) [SC0030]	–	94.5
–	–	CCCCCOc1cc(N2CC(Cn3cc(C)cn3)CN(Cc3cc(F)ccc3OC)C2=O)ccc1OC (centres unmarked) [SC0031]	–	96
–	–	CCCCCOc1cc(N2CC(Cn3cc(-c4cnccn4)cn3)CN(Cc3cc(F)ccc3OC)C2=O)ccc1OC (centres unmarked) [SC0032]	–	99.8
–	–	CCCCCOc1cc(N2CC(Cn3cccn3)CN(Cc3cc(F)ccc3OC)C2=O)ccc1OC (centres unmarked) [SC0033]	–	101
–	–	CCCCCOc1cc(N2CC(CN)CN(Cc3cc(F)ccc3OC)C2=O)ccc1OC (centres unmarked) [SC0034]	–	115
–	–	CCCCCOc1cc(N2CC(Cn3cncn3)CN(Cc3cc(F)ccc3OC)C2=O)ccc1OC (centres unmarked) [SC0035]	–	122
–	–	CCCCCOc1cc(N2CC(CNC(=O)C(F)(F)F)CN(Cc3cc(F)ccc3OC)C2=O)ccc1OC (centres unmarked) [SC0036]	–	122
–	–	CCCCCOc1cc(N2CC(COCC(=O)NCCOC)CN(Cc3cc(F)ccc3OC)C2=O)ccc1OC (centres unmarked) [SC0037]	–	124
–	–	CCCCCOc1cc(N2CC(Cn3cc(-c4ccccn4)nn3)CN(Cc3cc(F)ccc3OC)C2=O)ccc1OC (centres unmarked) [SC0038]	–	129
–	–	CCCCCOc1cc(N2CC(Cn3cc(CO)nn3)CN(Cc3cc(F)ccc3OC)C2=O)ccc1OC (centres unmarked) [SC0040]	–	208
–	–	CCCCCOc1cc(N2CC(Cn3cc4ccccc4n3)CN(Cc3cc(F)ccc3OC)C2=O)ccc1OC (centres unmarked) [SC0041]	–	251
–	–	CCCCCOc1cc(N2CC(Cn3ccnc3)CN(Cc3cc(F)ccc3OC)C2=O)ccc1OC (centres unmarked) [SC0042]	–	258
–	–	CCCCCOc1cc(N2CC(Cn3ncc4ccccc43)CN(Cc3cc(F)ccc3OC)C2=O)ccc1OC (centres unmarked) [SC0043]	–	337
–	–	CCCCCOc1cc(N2CC(C(N)=O)CN(Cc3cc(F)ccc3OC)C2=O)ccc1OC (centres unmarked) [SC0044]	–	14.9
–	–	CCCCCOc1cc(N2CC(C(=O)N3CCS(=O)(=O)C3)CN(Cc3cc(F)ccc3OC)C2=O)ccc1OC (centres unmarked) [SC0045]	–	24.3
–	–	CCCCCOc1cc(N2CC(C(=O)NC)CN(Cc3cc(F)ccc3OC)C2=O)ccc1OC (centres unmarked) [SC0046]	–	33
–	–	CCCCCOc1cc(N2CC(C(=O)NCCOC)CN(Cc3cc(F)ccc3OC)C2=O)ccc1OC (centres unmarked) [SC0047]	–	36.2
–	–	CCCCCOc1cc(N2CC(C(=O)N(C)C)CN(Cc3cc(F)ccc3OC)C2=O)ccc1OC (centres unmarked) [SC0048]	–	52.3
–	–	CCCCCOc1cc(N2CC(C(=O)N(C)CCO)CN(Cc3cc(F)ccc3OC)C2=O)ccc1OC (centres unmarked) [SC0049]	–	68.1
–	–	CCCCCOc1cc(N2CC(C(=O)Nc3ncco3)CN(Cc3cc(F)ccc3OC)C2=O)ccc1OC (centres unmarked) [SC0050]	–	76.2

SMILES	Kd [1] [nM]	solubility kinetic [3] [µM]	IC50 [2] [nM]	IC50 [4] [nM]
CCCCCOc1cc(N2CCCN(Cc3ccc(CC(=O)N4CCCN(C)CC4)cc3OC)C2=O)ccc1OC [CU0104]	0.6	269 (≈ 152 µg/mL)	23.8	–
